Results published in patent US20190175534A1, “PHARMACEUTICAL COMPOSITIONS COMPRISING DGLA AND USE OF SAME” (DS Biopharma Limited, priority 2016, published 2019).

How the values were obtained:
[1] = design: species or system human; conditions: in vivo
Procedure: A single-center, double-blind, randomized, placebo-controlled, two part Phase one study was performed in healthy male and female subjects aged 18 to 45 years inclusive. The primary objective of this study was to assess the safety and plasma pharmacokinetics (PK) of orally administered single doses and orally administered multiple doses of DS107G capsules (once daily for 28 days) in healthy subjects.
Subjects were randomly assigned in a 3:1 ratio of DG107G to placebo by block randomization. Single dose part one of the study comprised three cohorts of eight subjects each, with the addition of Cohort four based on evaluation of the safety data of Cohort three by the Safety Monitoring Committee (SMC). A single oral dose of DS107G or matching placebo was administered to fasted subjects in Cohorts one to three (500, 1000, and 2000 mg, respectively) in parallel; subjects in Cohort four were administered a dose of 4000 mg following completion of Cohort three. Subjects in Cohort two received 1000 mg or matching placebo in the fed state at ≥14 days after the first dose.
Safety assessments were monitored throughout the study.
In Part one of the study, subjects in Cohorts one to three were administered a single dose of study drug (either 500-, 1000-, or 2000-mg as 500-mg DS107G capsules or matching placebo capsules) in parallel on study Day 1 after at least an 8-hour fast, according to Table 20. Cohort 4 was initiated following the review of safety data from Cohort 3 by the SMC.

[2] = system: patients with moderate to severe atopic dermatitis; experiment: Phase II placebo-controlled study of oral DS107G: efficacy (IGA, EASI, SCORAD, pruritus VAS, BSA); type: in vivo, human; conditions: for IGA Non-Responders at Week 8, (%) / IGA Responders at Week 8, (%) / IGA Score Week 8: 0 - Clear, (%) / IGA Score Week 8: 1 - Almost Clear, (%) / IGA Score Week 8: 2 - Mild, (%) / IGA Score Week 8: 3 - Moderate, (%) / IGA Score Week 8: 4 - Severe, (%) / IGA Score Week 8: 5 - Very Severe, (%): ITT; for Visual analog scale of pruritus, Week 8/ET Actual, Mean / Visual analog scale of pruritus, Week 8/ET Actual, Median: oral 2 g once daily
Procedure: A randomised, double-blind, placebo-controlled, phase II study was performed to assess the efficacy and safety of orally administered DS107G (DGLA) to patients with moderate to severe atopic dermatitis. The primary objective of the study was to compare the efficacy of orally administered DS107G capsules, versus placebo, in the treatment of adult patients with moderate to severe atopic dermatitis. The secondary objective was to assess the safety of orally administered DS107G capsules, versus placebo, in adult patients with moderate to severe atopic dermatitis. The primary study endpoint was the proportion of patients achieving an IGA (Investigator Global Assessment) of 0 (clear) or 1 (almost clear) and a decrease of at least 2 points in IGA at week 8. Secondary study endpoints included:
Approximately 100 patients with moderate to severe atopic dermatitis were included in this multicenter, double-blind, placebo controlled, phase IIa study. All subjects signed an informed consent and underwent screening for study eligibility. Subjects were randomized (1:1) at baseline visit to either receive oral DS107G 2 g or placebo, once daily for 8 weeks in a fasting state.
Subjects visited the clinic on 6 occasions: at screening, baseline, week 2, week 4, week 8 (end of treatment/early termination) and week 10 (follow-up). All subjects exited the study at the week 10 visit. The primary efficacy variable was the proportion of patients achieving an IGA of 0 (clear) or 1 (almost clear), and a decrease of at least 2 points in IGA at week 8. Secondary efficacy variables included: IGA at other visits, pruritus (obtained from the SCORAD visual analog scale), EASI, BSA, POEM, DLQI, SCORAD and TEWL (for selected sites only). Safety was assessed through adverse events, physical examination, vital signs and safety laboratory tests (including pregnancy tests for women of childbearing potential), Pharmacokinetic samples were obtained at Baseline (Day 0), week 4 and week 8 visits in order to measure total and free DGLA plasma trough levels. Separate plasma samples were retained for later analysis of total fatty acid profile and interleukin profile.
The EASI is a composite score ranging from 0-72 that takes into account the degree of erythema, induration/papulation, excoriation, and lichenification (each scored from 0 to 3 separately) for each of four body regions, with adjustment for the percent of BSA involved for each body region and for the proportion of the body region to the whole body. A detailed procedure of EASI score calculation is provided below.
SCORAD is calculated as follows: Six items (erythema, edema/papulation, oozing/crusts, excoriation, lichenification, and dryness) are selected to evaluate the AD severity. The intensity of each item is graded using a 4-point scale:
The overall BSA affected by AD is evaluated (from 0 to 100%) and divided by 5. One patient's palm represents 1% of his/her total BSA. The maximum is 20.
Subjective items include loss of sleep and the occurrence of pruritus. These are evaluated by asking patients to indicate on the 10-cm scale (0-10) on the assessment form the point corresponding to the average value for the last three days/nights. The combined maximum score of these two is 20.
The sum of the above measures represents the SCORAD which can vary from 0 to 103. If the subjective scores of pruritus and loss of sleep are excluded, the SCORAD becomes objective SCORAD (score range 0-83).
Body Surface Area (BSA). The overall BSA affected by AD will be evaluated (from 0 to 100%) at each visit. One patient's palm represents 1% of his/her total BSA. For all study visits, except at screening, the BSA of involved skin will be measured with the SCORAD measurement and evaluated as a separate endpoint.
Subjects who fulfilled all the inclusion and none of the exclusion criteria were accepted in the study. Each subject read and signed an informed consent form prior to any screening procedures being performed. […]

[3] = oral 2 g once daily 8 weeks, n 35

CCCCC/C=C\C/C=C\C/C=C\CCCCCCC(=O)O [DGLA, Dihomo gamma linolenic acid]
Linearity of elimination half-life or clearance, free or total DGLA ([1]; human): no evidence of nonlinear pharmacokinetics | Mean baseline-corrected Cmax and AUC0-24 for free and total DGLA versus dose [1]: increased in a linear manner | IGA Non-Responders at Week 8, (%) ([2]; Moderate at baseline): (72.4) % | IGA Responders at Week 8, (%) ([2]; Moderate at baseline): (27.6) % | IGA Score Week 8: 0 - Clear, (%) ([2]; Moderate at baseline): (13.8) % | IGA Score Week 8: 1 - Almost Clear, (%) ([2]; Moderate at baseline): (13.8) % | IGA Score Week 8: 2 - Mild, (%) ([2]; Moderate at baseline): (20.7) % | IGA Score Week 8: 3 - Moderate, (%) ([2]; Moderate at baseline): (13.8) % | IGA Score Week 8: 4 - Severe, (%) ([2]; Moderate at baseline): (3.4) % | IGA Score Week 8: 5 - Very Severe, (%) ([2]; Moderate at baseline): (0.0) % | IGA Non-Responders at Week 8, (%) ([2]; Very Severe/Severe at baseline): (72.7) % | IGA Score Week 8: 0 - Clear, (%) ([2]; Very Severe/Severe at baseline): (0.0) % | IGA Score Week 8: 1 - Almost Clear, (%) ([2]; Very Severe/Severe at baseline): (13.6) % | IGA Score Week 8: 2 - Mild, (%) ([2]; Very Severe/Severe at baseline): (13.6) % | IGA Score Week 8: 3 - Moderate, (%) ([2]; Very Severe/Severe at baseline): (27.3) % | IGA Score Week 8: 4 - Severe, (%) ([2]; Very Severe/Severe at baseline): (13.6) % | IGA Score Week 8: 5 - Very Severe, (%) ([2]; Very Severe/Severe at baseline): (4.5) % | IGA Responders at Week 8, (%) ([2]; Very Severe/Severe at baseline, p-value 0.542): (27.3) % | IGA Non-Responders at Week 8, (%) ([2]; total population (N = 51)): (72.5) % | IGA Score Week 8: 0 - Clear, (%) ([2]; total population (N = 51)): (7.8) % | IGA Score Week 8: 1 - Almost Clear, (%) ([2]; total population (N = 51)): (13.7) % | IGA Score Week 8: 2 - Mild, (%) ([2]; total population (N = 51)): (17.6) % | IGA Score Week 8: 3 - Moderate, (%) ([2]; total population (N = 51)): (19.6) % | IGA Score Week 8: 4 - Severe, (%) ([2]; total population (N = 51)): (7.8) % | IGA Score Week 8: 5 - Very Severe, (%) ([2]; total population (N = 51)): (2.0) % | IGA Responders at Week 8, (%) ([2]; total population, decrease of at least 2 points in IGA score, p-value 0.065 (Cochran-Mantel-Haenszel), 0.228 (Fisher Exact)): (27.5) % | Visual analog scale of pruritus, Week 8/ET Actual, Mean ([2]; Table 9A (Week 4), n 35): 4.6 | Visual analog scale of pruritus, Week 8/ET Actual, Median ([2]; Table 9A (Week 4), n 35): 4.0 | Visual analog scale of pruritus, Week 8/ET Actual, Mean ([2]; Table 9B (Week 8), n 35): 4.6 | Visual analog scale of pruritus, Week 8/ET Actual, Median ([2]; Table 9B (Week 8), n 35): 4.0 | EASI, Change from baseline, LSMEANS ([2]; Week 8/ET, ANCOVA, p-value 0.831 vs placebo): −8.0 | Primary efficacy end point (two point drop in IGA and end of treatment IGA of 0 or 1) over placebo ([2]; intent to treat analysis, overall, p=0.057): clinically significant trend | Primary efficacy end point (two point drop in IGA and end of treatment IGA of 0 or 1) over placebo ([2]; moderate patient subgroup (n=67), p=0.036): statistically significant improvement | Body surface area affected by atopic dermatitis, Week 8/ET Actual, Median [2, 3]: 12.0 | EASI, Week 8/ET Actual, Median [2, 3]: 7.4 | Eczema area and severity index (EASI), Week 8/ET Actual, Mean [2, 3]: 9.3 | Pruritus score [visual analog scale] ([2]; within four weeks of dosing, p=0.015): statistically significant reduction of itch
